Source: patent US9663486B2, “Selectively substituted quinoline compounds” (EISAI R&D MANAGEMENT CO., LTD., priority 2013, dated 2017)

Columns and labels:
Human TLR7/8 = test: Human PBMC cell-based assay, TLR7/8 (RNA-Ig), cytokine ELISA; conditions: PBMC assay data summary; ligand and analyte not given; read-out: Human PBMCs IC50
Method: Human peripheral blood mononuclear cells (PBMC) were isolated from freshly-drawn heparinized (10 USP units/ml, Hospira, Lakeforest, Ill.) healthy donor whole blood by density gradient (Histopaque® 1077, Sigma, Inc., St. Louis, Mo.). Briefly, 25 ml blood was diluted with 15 ml PBS (without Ca^2+, Mg^2+) in a 50 ml conical tube, and 12 ml Histopaque was underlaid using a spinal needle. Tubes were centrifuged for 45 minutes at 1200 rpm (350×g), and PBMC were collected from the buffy coat. Cells were then washed twice in PBS, and red blood cells were lysed by suspension in 5 ml ammonium chloride solution (1× Red Blood Cell Lysis Buffer, eBioscience) for 5 minutes at room temperature. After a final wash in PBS, PBMC were resuspended at a final concentration of 2×10^6/ml in RPMI-1640 media with L-glutamine (Invitrogen) and supplemented with 25 mM HEPES (Mediatech, Inc, Manassas Va.), 10% fetal bovine serum (HyClone, Logan, Utah), and Penicillin-Streptomycin-Glutamine (Mediatech) and plated at 100 ul/well (2×10^5 cells/well) in tissue culture treated 96-well plates (Falcon).
Antagonist compounds solubilized and serial diluted in 100% DMSO were added in triplicate to cells to yield a final concentration of 0.1% DMSO (v/v). Hydroxychloroquine (Acros Organics) solubilized and serial diluted in PBS was added in triplicate to cells. PBMC were incubated with antagonist compounds or HCQ for 30 minutes at 37° C., 5% CO2 before adding various TLR agonist reagents in 100 ul complete media per well as follows (final concentrations indicated): R848 (Resiquimod; GLSynthesis, Worcester, Mass.) at 1 uM for TLR7 and TLR8, Pam3CSK4 (InvivoGen) at 50 ng/ml for TLR1/2, LPS (Sigma) at 10 ng/ml for TLR4, and CpG-2216 (InvivoGen) at 5 ug/ml for TLR9. […] The resulting “RNA-Ig” stimulus was incubated at room temperature for 15-30 minutes before adding to cells. PBMC were incubated with the various TLR agonists for 20 hours at 37° C., 5% CO2. Cell culture supernatants were collected, and levels of various human cytokines were assessed as indicated by standard ELISA procedure according to the manufacturer's recommended protocol (BD Biosciences, Inc., San Diego, Calif.).

mouse TLR7 = target: T1, mouse TLR7 (Mus musculus, UniProt P58681); test: Short-term in vivo (STIV) assay, plasma IL-6 after R848; conditions: plasma IL-6 after R848 s.c., BALB/c mice
T1 construct: tissue Jackson Labs; host or cells: live female BALB/c mice
T1 sequence (P58681 27-1050): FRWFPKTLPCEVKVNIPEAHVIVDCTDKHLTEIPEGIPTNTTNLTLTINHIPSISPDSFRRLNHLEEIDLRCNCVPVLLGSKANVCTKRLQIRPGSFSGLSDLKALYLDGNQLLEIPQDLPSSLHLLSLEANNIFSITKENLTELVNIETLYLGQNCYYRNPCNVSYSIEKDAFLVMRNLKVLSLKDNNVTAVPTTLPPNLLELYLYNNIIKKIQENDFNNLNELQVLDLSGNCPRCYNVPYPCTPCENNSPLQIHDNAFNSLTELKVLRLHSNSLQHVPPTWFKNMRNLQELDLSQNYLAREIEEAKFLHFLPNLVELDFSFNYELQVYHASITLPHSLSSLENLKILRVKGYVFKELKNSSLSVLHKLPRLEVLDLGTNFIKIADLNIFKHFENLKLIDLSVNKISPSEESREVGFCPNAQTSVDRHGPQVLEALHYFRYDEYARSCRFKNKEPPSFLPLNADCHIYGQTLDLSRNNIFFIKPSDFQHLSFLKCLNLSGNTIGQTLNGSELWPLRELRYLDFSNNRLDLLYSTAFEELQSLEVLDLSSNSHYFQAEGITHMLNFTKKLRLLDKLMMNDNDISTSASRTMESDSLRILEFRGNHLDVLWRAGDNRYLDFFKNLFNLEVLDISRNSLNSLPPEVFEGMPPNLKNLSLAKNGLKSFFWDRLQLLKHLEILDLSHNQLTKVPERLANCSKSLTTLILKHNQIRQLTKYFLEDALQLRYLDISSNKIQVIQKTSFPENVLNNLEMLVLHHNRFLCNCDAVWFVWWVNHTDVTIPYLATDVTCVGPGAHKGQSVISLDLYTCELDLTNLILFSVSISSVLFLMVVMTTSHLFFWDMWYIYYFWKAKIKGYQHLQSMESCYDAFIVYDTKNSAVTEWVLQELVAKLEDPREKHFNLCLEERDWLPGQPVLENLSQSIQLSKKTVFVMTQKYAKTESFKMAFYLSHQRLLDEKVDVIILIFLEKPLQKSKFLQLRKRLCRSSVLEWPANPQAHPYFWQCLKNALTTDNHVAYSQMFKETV
Method: To assess compound potency in vivo against mouse TLR7, a short-term in vivo (STIV) assay was utilized. Briefly, mice were orally dosed with compounds and at various time points afterwards were injected subcutaneously with agonist R848 to stimulate TLR7. The plasma IL-6 level following R848 stimulation was then measured by ELISA to assess compound potency and duration-of-action. […] Therefore, the activity of compounds in the STIV assay can be confidently attributed to their modulation of the TLR7 pathway.
Six to eight week old female BALB/c mice (Jackson Labs, Bar Harbor, Me.) were dosed by oral gavage in 200 ul volume with antagonist compounds formulated in 0.5% aqueous methyl-cellulose (Sigma, St. Louis, Mo.). At various time points afterwards, mice were injected subcutaneously (s.c.) in 100 ul volume with 15 ug R848 (Resiquimod; GLSynthesis, Worcester, Mass.) to stimulate TLR7. Blood plasma was collected by cardiac puncture, and levels of IL-6 at 1.5 hours after TLR7 stimulation were then assessed by standard ELISA procedure according to the manufacturer's recommended protocol (R&D Systems).

Human TLR4 = Human TLR4 (Homo sapiens, UniProt O00206); test: Human PBMC cell-based assay, LPS stimulation, IL-6; parameters: endogenous in cells; host or cells: primary human PBMC from healthy donors; conditions: Hu PBMC; ligand LPS
Method: (§1) Human peripheral blood mononuclear cells (PBMC) were isolated from freshly-drawn heparinized (10 USP units/ml, Hospira, Lakeforest, Ill.) healthy donor whole blood by density gradient (Histopaque® 1077, Sigma, Inc., St. Louis, Mo.). Briefly, 25 ml blood was diluted with 15 ml PBS (without Ca^2+, Mg^2+) in a 50 ml conical tube, and 12 ml Histopaque was underlaid using a spinal needle. Tubes were centrifuged for 45 minutes at 1200 rpm (350×g), and PBMC were collected from the buffy coat. Cells were then washed twice in PBS, and red blood cells were lysed by suspension in 5 ml ammonium chloride solution (1× Red Blood Cell Lysis Buffer, eBioscience) for 5 minutes at room temperature. […]
(§2) Antagonist compounds solubilized and serial diluted in 100% DMSO were added in triplicate to cells to yield a final concentration of 0.1% DMSO (v/v). […] Cell culture supernatants were collected, and levels of various human cytokines were assessed as indicated by standard ELISA procedure according to the manufacturer's recommended protocol (BD Biosciences, Inc., San Diego, Calif.).

Human TLR9 = target: T2, Human TLR9 (Homo sapiens, UniProt Q9NR96); test: Human PBMC cell-based assay, CpG-ODN stimulation, IL-6; parameters: endogenous in cells; host or cells: primary human PBMC from healthy donors; conditions: Hu PBMC; ligand CpG-ODN
T2 sequence (Q9NR96 26-1032): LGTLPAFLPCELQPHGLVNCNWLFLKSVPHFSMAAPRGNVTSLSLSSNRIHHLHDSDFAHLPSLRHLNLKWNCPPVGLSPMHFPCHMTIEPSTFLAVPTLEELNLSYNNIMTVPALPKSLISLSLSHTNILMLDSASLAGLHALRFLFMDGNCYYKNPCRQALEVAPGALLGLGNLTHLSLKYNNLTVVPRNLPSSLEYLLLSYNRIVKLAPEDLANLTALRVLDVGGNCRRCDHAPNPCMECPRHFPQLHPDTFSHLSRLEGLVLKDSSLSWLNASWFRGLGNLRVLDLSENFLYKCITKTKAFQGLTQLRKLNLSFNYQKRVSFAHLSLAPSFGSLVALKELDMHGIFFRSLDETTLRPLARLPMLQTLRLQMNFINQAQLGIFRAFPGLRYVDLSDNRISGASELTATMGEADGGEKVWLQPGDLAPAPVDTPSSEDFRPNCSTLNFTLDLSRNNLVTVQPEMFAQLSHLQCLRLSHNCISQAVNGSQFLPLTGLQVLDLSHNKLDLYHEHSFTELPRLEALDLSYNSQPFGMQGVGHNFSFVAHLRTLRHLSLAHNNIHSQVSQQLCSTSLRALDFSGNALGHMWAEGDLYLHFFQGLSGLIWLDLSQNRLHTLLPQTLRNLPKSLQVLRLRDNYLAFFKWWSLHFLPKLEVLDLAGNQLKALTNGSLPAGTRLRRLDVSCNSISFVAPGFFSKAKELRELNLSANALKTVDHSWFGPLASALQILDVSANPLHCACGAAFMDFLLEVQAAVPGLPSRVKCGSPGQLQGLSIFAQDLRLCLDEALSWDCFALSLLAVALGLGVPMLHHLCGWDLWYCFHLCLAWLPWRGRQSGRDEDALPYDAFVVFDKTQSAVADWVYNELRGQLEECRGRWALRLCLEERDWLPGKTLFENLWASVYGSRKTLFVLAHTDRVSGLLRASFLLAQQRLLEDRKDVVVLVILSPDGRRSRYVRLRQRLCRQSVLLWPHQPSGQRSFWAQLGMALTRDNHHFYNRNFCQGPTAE
Method: as §1, §2

[1] = 13 hr after oral dose, 33 mg/kg
[2] = 13 hr after oral dose, 100 mg/kg
[3] = 13 hr after oral dose, 300 mg/kg
[4] = 24 hr after oral dose, 100 mg/kg
[5] = 24 hr after oral dose, 300 mg/kg

Sequence of Human TLR4 (O00206 24-839): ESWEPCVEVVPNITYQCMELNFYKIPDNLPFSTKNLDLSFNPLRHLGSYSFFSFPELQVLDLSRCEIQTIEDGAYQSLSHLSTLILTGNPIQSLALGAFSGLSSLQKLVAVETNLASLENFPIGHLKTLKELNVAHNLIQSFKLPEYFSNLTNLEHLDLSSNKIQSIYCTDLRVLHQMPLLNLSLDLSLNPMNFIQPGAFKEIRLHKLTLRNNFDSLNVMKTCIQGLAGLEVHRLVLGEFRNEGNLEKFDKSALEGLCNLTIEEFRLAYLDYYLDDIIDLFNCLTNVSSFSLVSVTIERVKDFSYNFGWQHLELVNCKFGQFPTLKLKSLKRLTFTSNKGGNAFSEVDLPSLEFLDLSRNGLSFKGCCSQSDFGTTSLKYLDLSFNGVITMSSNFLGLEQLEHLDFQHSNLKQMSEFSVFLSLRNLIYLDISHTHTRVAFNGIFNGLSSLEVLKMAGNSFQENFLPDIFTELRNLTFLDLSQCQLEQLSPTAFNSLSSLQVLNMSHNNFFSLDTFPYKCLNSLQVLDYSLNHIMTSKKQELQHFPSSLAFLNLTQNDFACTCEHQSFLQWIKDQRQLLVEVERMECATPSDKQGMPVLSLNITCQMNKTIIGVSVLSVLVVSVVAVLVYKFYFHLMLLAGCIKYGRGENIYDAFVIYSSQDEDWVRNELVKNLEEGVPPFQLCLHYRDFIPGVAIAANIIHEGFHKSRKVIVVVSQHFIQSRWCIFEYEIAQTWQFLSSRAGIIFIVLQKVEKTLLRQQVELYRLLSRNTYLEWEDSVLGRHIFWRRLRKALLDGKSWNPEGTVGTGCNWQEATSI
Sequence of Human TLR4 (Q9Y6Y9 19-160 partner): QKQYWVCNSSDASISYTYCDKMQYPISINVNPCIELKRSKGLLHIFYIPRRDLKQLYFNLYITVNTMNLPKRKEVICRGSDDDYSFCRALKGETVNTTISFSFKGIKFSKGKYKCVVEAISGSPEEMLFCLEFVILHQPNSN

| Compound | IC50 (Human TLR7/8) | % Suppression vs. Vehicle (mouse TLR7; 6 h after oral dose, 33 mg/kg) | % Suppression vs. Vehicle (mouse TLR7; [1]) | % Suppression vs. Vehicle (mouse TLR7; [2]) | % Suppression vs. Vehicle (mouse TLR7; [3]) | % Suppression vs. Vehicle (mouse TLR7; 24 hr after oral dose, 33 mg/kg) | % Suppression vs. Vehicle (mouse TLR7; [4]) | % Suppression vs. Vehicle (mouse TLR7; [5]) | % Suppression vs. Vehicle (mouse TLR7; 6 h after oral dose, 100 mg/kg) | IC50 (Human TLR4) | IC50 (Human TLR9) |
| --- | --- | --- | --- | --- | --- | --- | --- | --- | --- | --- | --- |
| CNCC(=O)NC1CC(C)CN(c2ccc(C#N)c3ncccc23)C1 (centres unmarked) [ER-897608] | 5 nM | 98% | 56% | 84% | 98% | 35% | 22% | 95% | – | – | – |
| CC1CC(NC2CCOC2)CN(c2ccc(C#N)c3ncccc23)C1 (centres unmarked) [ER-899544] | 5 nM | – | – | 94% | – | – | – | – | 97% | – | – |
| CCN(CCO)CCCC(C)Nc1ccnc2cc(Cl)ccc12 (centres unmarked) [HCQ, Hydroxychloroquine] | – | – | – | – | – | – | – | – | – | > 10000 nM | 150 to 300 nM |
| CC1CC(NC(=O)C2(C)COC2)CN(c2ccc(C#N)c3ncccc23)C1 (centres unmarked) [ER-899072] | 8 nM | – | 34% | 72% | 100% | – | 0% | 78% | 94% | – | – |
| CC1CC(NC2COC2)CN(c2ccc(C#N)c3ncccc23)C1 (centres unmarked) [ER-899541] | 15 nM | – | – | 92% | – | – | – | – | 97% | – | – |
| C[C@H]1C[C@@H](NS(=O)(=O)CCCN(C)C)CN(c2ccc(C#N)c3ncccc23)C1 [ER-899672] | 3 nM | – | – | 83% | – | – | – | – | 89% | – | – |
